From patent US9505727B2 (THE JOHNS HOPKINS UNIVERSITY, priority 2013, dated 2016)

Experiments:
hNav1.1 = biological target: T1, hNav1.1 (Homo sapiens, UniProt P35498); assay: Two-electrode voltage-clamp of hNav1.1 (+β1) in Xenopus oocytes; assay type: cell-based; details: for Effect on hNav1.1 opening (G/Gmax), in words / Effect on hNav1.1 steady-state inactivation, in words / Effect on hNav1.1 persistent current / Depolarizing shift in hNav1.1 channel activation voltage: 100 μM; for Effect on hNav1.1 opening (G/Gmax), in words / Depolarizing shift in hNav1.1 channel activation voltage: versus DMSO; for Inactivation (V1/2) hNav1.1 / Activation (V1/2) hNav1.1: 100 μM drug; for Inactivation (V1/2) hNav1.1: steady-state inactivation; for Activation (V1/2) hNav1.1: ≤1% DMSO, oocytes incubated at least one hour; for Effect on hNav1.1 persistent current: end of 50 ms test pulse
T1 construct: host or cells: Xenopus oocytes (cRNA injection)

hNav1.2 = biological target: T2, hNav1.2 (Homo sapiens, UniProt Q99250); assay: Two-electrode voltage-clamp of hNav1.2 (+β1) in Xenopus oocytes; assay type: cell-based; details: for Effect on hNav1.2 opening/gating, in words: 100 μM, versus DMSO; for Inactivation (V1/2) hNav1.2 / Activation (V1/2) hNav1.2: 100 μM drug; for Inactivation (V1/2) hNav1.2: steady-state inactivation; for Activation (V1/2) hNav1.2: ≤1% DMSO
T2 construct: host or cells: Xenopus oocytes (cRNA injection)

hNav1.3 = biological target: T3, hNav1.3 (Homo sapiens, UniProt Q9NY46); assay: Two-electrode voltage-clamp of hNav1.3 (+β1) in Xenopus oocytes; assay type: cell-based; details: for Effect on hNav1.3 opening/gating, in words: 100 μM, versus DMSO; for Inactivation (V1/2) hNav1.3 / Activation (V1/2) hNav1.3: 100 μM drug; for Inactivation (V1/2) hNav1.3: steady-state inactivation; for Activation (V1/2) hNav1.3: ≤1% DMSO
T3 construct: host or cells: Xenopus oocytes (cRNA injection)

hNav1.6 = biological target: T4, hNav1.6 (Homo sapiens, UniProt Q9UQD0); assay: Two-electrode voltage-clamp of hNav1.6 (+β1) in Xenopus oocytes; assay type: cell-based; details: for Inactivation (V1/2) hNav1.6 / Activation (V1/2) hNav1.6: 100 μM drug; for Inactivation (V1/2) hNav1.6: steady-state inactivation; for Activation (V1/2) hNav1.6: ≤1% DMSO
T4 construct: host or cells: Xenopus oocytes (cRNA injection)

α1/β2/γ2 GABAA receptor = biological target: T5, α1/β2/γ2 GABAA receptor (Homo sapiens, UniProt P14867+P18507+P47870); assay: GABAA receptor activation in oocytes held at −70 mV; assay type: cell-based
T5 construct: expressed in transfected cells; host or cells: oocytes
T5 sequence (P14867 28-456): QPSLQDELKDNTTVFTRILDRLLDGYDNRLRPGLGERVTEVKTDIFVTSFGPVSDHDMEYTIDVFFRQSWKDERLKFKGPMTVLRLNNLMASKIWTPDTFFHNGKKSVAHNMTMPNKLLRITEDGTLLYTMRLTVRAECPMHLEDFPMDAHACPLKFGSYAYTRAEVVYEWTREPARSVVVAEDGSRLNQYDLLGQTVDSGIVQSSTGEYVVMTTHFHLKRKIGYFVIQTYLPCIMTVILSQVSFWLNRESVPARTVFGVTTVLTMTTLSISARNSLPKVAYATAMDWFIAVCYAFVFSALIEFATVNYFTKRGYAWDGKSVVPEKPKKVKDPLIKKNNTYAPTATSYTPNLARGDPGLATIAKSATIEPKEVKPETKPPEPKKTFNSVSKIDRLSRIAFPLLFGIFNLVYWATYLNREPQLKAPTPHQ
T5 sequence (P47870 25-512 limits assumed): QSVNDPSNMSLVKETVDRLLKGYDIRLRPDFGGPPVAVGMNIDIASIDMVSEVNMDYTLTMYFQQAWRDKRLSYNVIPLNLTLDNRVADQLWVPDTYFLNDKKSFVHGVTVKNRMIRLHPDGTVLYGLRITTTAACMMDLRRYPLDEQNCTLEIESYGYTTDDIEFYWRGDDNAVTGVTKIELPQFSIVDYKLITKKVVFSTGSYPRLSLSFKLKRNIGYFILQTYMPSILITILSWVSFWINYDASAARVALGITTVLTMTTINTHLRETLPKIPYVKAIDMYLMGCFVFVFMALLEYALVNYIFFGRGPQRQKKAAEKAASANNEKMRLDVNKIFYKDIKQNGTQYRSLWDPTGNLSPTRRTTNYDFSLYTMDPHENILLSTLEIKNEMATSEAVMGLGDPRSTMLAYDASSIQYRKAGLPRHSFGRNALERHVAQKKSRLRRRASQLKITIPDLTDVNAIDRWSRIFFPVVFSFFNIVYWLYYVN
T5 sequence (P18507 40-475): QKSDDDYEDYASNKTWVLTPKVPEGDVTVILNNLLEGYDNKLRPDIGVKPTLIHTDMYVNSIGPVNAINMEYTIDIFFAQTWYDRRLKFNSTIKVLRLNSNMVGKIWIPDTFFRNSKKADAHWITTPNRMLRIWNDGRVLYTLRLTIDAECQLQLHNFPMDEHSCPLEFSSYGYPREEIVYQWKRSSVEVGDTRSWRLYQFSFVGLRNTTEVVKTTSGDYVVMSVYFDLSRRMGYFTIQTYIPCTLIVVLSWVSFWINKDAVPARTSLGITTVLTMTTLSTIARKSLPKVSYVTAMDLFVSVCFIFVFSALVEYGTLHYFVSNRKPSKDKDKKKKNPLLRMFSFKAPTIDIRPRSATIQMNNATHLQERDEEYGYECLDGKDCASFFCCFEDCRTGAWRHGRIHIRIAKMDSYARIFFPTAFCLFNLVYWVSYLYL

[1] = system: picrotoxin-induced seizures in male Crl:CF1 mice; assay: Picrotoxin seizure induction; assay type: in vivo, mouse; details: 75 mg/kg ip
Protocol: (§1) Animal husbandry and drug administration. Male Crl:CF1 mice (10-12 weeks old, Charles River) were housed under a 12 hour light-dark cycle with free access to food and water and all experiments were carried out between 10 am and 4 pm. 1-[phenyl-methyl]-1H-1,2,3-triazole-4-carboxamide-5-methyl (Compound B) (Sigma Aldrich) was suspended in a 40% solution of cyclodextrin (Sigma Aldrich) in sterile saline (0.9%) and 15 minutes prior to each seizure induction paradigm, 75 mg/kg of compound B was administered via intraperitoneal injection (ip) injection. Vehicle treated animals were similarly administrated 40% cyclodextrin and served as the controls for each experiment. The Emory University Institutional Animal Care and Use Committee approved all experimental protocols involving mice.
Seizure induction paradigms and analyses. Picrotoxin seizure induction—15 minutes prior to i.p. injection of picrotoxin (10 mg/kg, Sigma Aldrich), mice were administered vehicle or compound B (n=12 per group). Latencies to the first myoclonic jerk, forelimb clonus, and generalized tonic-clonic seizure were compared between compound B and vehicle-treated mice. The myoclonic jerk is characterized by a sudden jerk of the upper body whereas forelimb clonus involves rapid movement of the forelimbs for at least 5 s. Finally, the generalized tonic-clonic seizure involves the loss of postural control with rapid movement of the limbs for at least 5 s.
Statistical analysis. A Student's t-test was used to identify statistically significant differences in latencies between vehicle- and compound B-treated groups for each seizure phenotype following administration of flurothyl and picrotoxin. […] All data are presented as the mean±s.e.m.; p values <0.05 were considered significant.

[2] = system: flurothyl-induced seizures in male Crl:CF1 mice; assay: Flurothyl seizure induction; assay type: in vivo, mouse; details: 75 mg/kg ip, p=0.6
Protocol: as §1
Flurothyl Seizure induction. Latencies to flurothyl-induced seizures were determined as previously described (Neurobiol Dis 49C, 211-220 (2012)). Briefly, flurothyl (2,2,2-trifluroethylether; Sigma Aldrich) was dispensed at a rate of 20 μl/minute into a Plexiglas chamber and latencies to three behavioral phenotypes were compared between vehicle-treated and compound B-treated (75 mg/kg) mice (n=12 per group): 1) the first myoclonic jerk, 2) a generalized tonic-clonic seizure, and 3) a generalized tonic-clonic seizure with tonic extension. […]

[3] = system: 6 Hz psychomotor seizures in male Crl:CF1 mice; assay: 6 Hz psychomotor seizure induction; assay type: in vivo, mouse; details: 17 mA
Protocol: as §1
6 Hz psychomotor seizure induction. Topical anesthetic (0.5% tetracaine hydrochloride ophthalmic solution) was applied to the cornea 30 minutes before testing. Fifteen minutes prior to seizure induction, mice were administrated vehicle or compound B (n=12 per group). Each mouse was manually restrained and corneal stimulation (0.2 ms pulse, 6 Hz, 3 s) was performed at a current intensity of 17 mA (ECT Unit 57800; Ugo Basile, Comerio Italy). […]

Nav1.7 = Nav1.7 (Homo sapiens, UniProt Q15858); details: reported by other researchers; cited from earlier work
Chain of Nav1.7 (Q15858 whole entry): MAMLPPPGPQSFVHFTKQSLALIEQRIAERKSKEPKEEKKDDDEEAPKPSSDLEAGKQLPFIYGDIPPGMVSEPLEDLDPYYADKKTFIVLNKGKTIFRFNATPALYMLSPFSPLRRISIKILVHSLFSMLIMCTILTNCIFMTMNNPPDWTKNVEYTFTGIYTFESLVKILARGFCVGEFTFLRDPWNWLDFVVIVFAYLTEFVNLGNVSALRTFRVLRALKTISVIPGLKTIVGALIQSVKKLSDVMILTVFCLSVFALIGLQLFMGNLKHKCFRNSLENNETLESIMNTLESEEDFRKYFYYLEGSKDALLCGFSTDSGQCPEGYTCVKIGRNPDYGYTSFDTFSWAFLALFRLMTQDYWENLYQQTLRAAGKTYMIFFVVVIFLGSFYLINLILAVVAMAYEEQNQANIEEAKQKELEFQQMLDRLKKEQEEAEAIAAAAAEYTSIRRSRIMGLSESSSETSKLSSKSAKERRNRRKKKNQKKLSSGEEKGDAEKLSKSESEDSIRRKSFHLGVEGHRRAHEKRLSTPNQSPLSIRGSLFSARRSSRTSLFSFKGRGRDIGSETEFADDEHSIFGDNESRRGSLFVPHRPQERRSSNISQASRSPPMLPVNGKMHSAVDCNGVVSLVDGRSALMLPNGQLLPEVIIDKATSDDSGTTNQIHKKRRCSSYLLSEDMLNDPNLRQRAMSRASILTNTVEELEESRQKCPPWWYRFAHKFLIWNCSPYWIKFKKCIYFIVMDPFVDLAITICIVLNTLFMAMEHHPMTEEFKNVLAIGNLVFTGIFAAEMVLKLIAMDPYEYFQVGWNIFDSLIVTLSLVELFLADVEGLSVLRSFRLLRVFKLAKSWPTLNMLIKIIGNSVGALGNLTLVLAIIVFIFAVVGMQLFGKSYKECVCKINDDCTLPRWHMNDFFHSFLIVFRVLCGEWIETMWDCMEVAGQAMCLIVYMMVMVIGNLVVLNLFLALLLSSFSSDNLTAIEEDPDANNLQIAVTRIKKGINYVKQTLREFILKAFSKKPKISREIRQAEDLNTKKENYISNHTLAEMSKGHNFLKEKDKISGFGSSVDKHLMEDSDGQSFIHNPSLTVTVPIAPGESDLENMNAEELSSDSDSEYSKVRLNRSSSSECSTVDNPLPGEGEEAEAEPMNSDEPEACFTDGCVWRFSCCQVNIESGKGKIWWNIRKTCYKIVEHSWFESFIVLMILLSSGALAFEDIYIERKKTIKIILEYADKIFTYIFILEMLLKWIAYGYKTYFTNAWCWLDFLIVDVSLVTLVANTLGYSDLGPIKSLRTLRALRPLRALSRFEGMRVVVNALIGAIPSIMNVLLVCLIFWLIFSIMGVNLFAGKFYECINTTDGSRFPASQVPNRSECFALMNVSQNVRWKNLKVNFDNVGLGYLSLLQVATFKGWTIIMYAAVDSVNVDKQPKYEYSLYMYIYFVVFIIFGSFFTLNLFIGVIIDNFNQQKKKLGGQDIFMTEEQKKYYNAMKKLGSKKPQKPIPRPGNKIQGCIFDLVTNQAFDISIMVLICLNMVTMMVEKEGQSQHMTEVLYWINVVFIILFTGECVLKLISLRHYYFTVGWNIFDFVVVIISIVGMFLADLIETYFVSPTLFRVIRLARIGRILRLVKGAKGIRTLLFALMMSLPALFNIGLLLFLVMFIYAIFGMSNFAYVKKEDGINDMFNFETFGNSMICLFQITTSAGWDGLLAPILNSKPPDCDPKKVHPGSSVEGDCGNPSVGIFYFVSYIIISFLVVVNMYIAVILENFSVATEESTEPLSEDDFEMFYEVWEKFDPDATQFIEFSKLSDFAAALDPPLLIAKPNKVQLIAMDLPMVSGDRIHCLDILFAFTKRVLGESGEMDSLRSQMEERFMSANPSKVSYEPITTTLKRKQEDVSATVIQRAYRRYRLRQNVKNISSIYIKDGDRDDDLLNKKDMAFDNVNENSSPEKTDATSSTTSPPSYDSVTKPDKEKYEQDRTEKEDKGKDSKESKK

For “1-[(2,6-difluorophenyl)methyl]-1H-1,2,3-triazole-carboxymethyl-5-methyl [Compound L]”, the “Effect on hNav1.1 opening (G/Gmax), in words” value (“Effect on hNav1.1 opening” below) (hNav1.1) was “only slightly inhibits”, the “Effect on hNav1.2 opening/gating, in words” value (hNav1.2) was “not significant” and the “Effect on hNav1.3 opening/gating, in words” value (hNav1.3) was “not significant”. The “Effect on hNav1.6 steady-state inactivation, in words” value (hNav1.6; 100 μM) was “dramatically affect”.

In the case of NC(=O)c1nnn(Cc2cccc(F)c2)c1N [Compound A, 1-[(3-fluorophenyl)methyl]-1H-1,2,3-Triazole-4-carboxamide-5-amine], the “Effect on hNav1.1 steady-state inactivation, in words” value (hNav1.1) is reported as “neither of these compounds influences”, the “Inactivation (V1/2) hNav1.1” value (hNav1.1) is reported as −50.5 ± 1.2 mV^ and the “Activation (V1/2) hNav1.1” value (hNav1.1) is reported as −30.8 ± 1.0 mV**. The “Effect on hNav1.1 persistent current” value (hNav1.1) was “neither of these compounds influences” and the “Effect on hNav1.1 opening” value (hNav1.1) was “clearly inhibit”.

For Cc1c(C(N)=O)nnn1Cc1ccccc1 [Compound B, 1-[phenyl-methyl]-1H-1,2,3-Triazole-4-carboxamide-5-methyl], the “Effect on hNav1.1 steady-state inactivation, in words” value (hNav1.1) was “neither of these compounds influences”, the “Inactivation (V1/2) hNav1.1” value (hNav1.1) was −49.4 ± 0.3 mV^ and the “Activation (V1/2) hNav1.1” value (hNav1.1) was −27.4 ± 1.0 mV**. For the same molecule, the “Effect on hNav1.1 persistent current” value (hNav1.1) was “neither of these compounds influences”, the “Effect on hNav1.1 persistent current” value (hNav1.1; listed as compound B) was “do not affect” and the “Depolarizing shift in hNav1.1 channel activation voltage” value (hNav1.1) was “~+11 mV”. For the same molecule, the “Effect on hNav1.1 opening” value (hNav1.1) was “clearly inhibit”, the “Inactivation (V1/2) hNav1.2” value (hNav1.2) was −53.6 ± 1.2 mV and the “Activation (V1/2) hNav1.2” value (hNav1.2) was −23.6 ± 1.1 mV. The “Effect on hNav1.2 opening/gating, in words” value (hNav1.2) was “unaltered”, the “Inactivation (V1/2) hNav1.3” value (hNav1.3) was −50.0 ± 0.8 mV and the “Activation (V1/2) hNav1.3” value (hNav1.3) was −25.8 ± 1.4 mV. The “Effect on hNav1.3 opening/gating, in words” value (hNav1.3) was “unaltered”, the “Inactivation (V1/2) hNav1.6” value (hNav1.6) was −62.6 ± 0.7 mV and the “Activation (V1/2) hNav1.6” value (hNav1.6) was −23.8 ± 1.9 mV. For the same molecule, the “Effect on hNav1.6 opening/gating, in words” value (hNav1.6; 100 μM, versus DMSO) was “unaltered”, the “Activation of α1/β2/γ2 GABAA receptor” value (α1/β2/γ2 GABAA receptor; 100 μM) was “do not activate” and the “Frequency of behavioral seizures versus vehicle, picrotoxin” value [1] was “no difference”. For the same molecule, the “Average latency to forelimb clonus (FC) versus vehicle, picrotoxin” value ([1]; p=0.3) was “no statistically significant differences”, the “Average latency to first myoclonic jerk (MJ) versus vehicle, picrotoxin” value ([1]; p=0.4) was “no statistically significant differences” and the “Average latency to MJ versus vehicle, flurothyl” value [2] was “comparable”. For the same molecule, the “Seizure severity (modified Racine scale) versus vehicle, 6 Hz” value ([3]; 75 mg/kg ip) was “dramatically less severe” and the “Reduction in the number of mice exhibiting seizures, 6 Hz” value ([3]; versus vehicle) was 63%.

In the case of OCc1cn(Cc2cccc(F)c2)nn1 [Compound C, 1-[(3-fluorophenyl)methyl]-1H-1,2,3-Triazole-4-hydroxymethyl], the “Inactivation (V1/2) hNav1.1” value (hNav1.1) is reported as −49.2 ± 0.6 mV, the “Activation (V1/2) hNav1.1” value (hNav1.1) is reported as −38.4 ± 1.3 mV and the “Effect on hNav1.1 opening” value (hNav1.1) is reported as “no longer affects”.

For NC(=O)c1nnn(Cc2ccc(F)cc2)c1N [Compound D, 1-[(4-fluorophenyl)methyl]-1H-1,2,3-Triazole-4-carboxamide-5-amine], the “Inactivation (V1/2) hNav1.1” value (hNav1.1) was −49.8 ± 1.6 mV, the “Activation (V1/2) hNav1.1” value (hNav1.1) was −32.5 ± 2.3 mV and the “Effect on hNav1.1 opening” value (hNav1.1) was “not significant”.

With CCc1c(C(N)=O)nnn1Cc1ccccc1 [Compound F, 1-(phenylmethyl)-1H-1,2,3-triazole-4-carboxamide-5-ethyl] the “Effect on hNav1.1 steady-state inactivation, in words” value (hNav1.1) was “does not influence”, the “Effect on hNav1.1 persistent current” value (hNav1.1) was “does not influence” and the “Depolarizing shift in hNav1.1 channel activation voltage” value (hNav1.1) was “~+12 mV”. The “Effect on hNav1.1 opening” value (hNav1.1) was “inhibits hNav1.1 opening”, the “Effect on hNav1.2 opening/gating, in words” value (hNav1.2) was “not significant” and the “Effect on hNav1.3 opening/gating, in words” value (hNav1.3) was “not significant”. For the same molecule, the “Effect on hNav1.6 opening/gating, in words” value (hNav1.6; 100 μM, versus DMSO) was “not significant”.

With COC(=O)c1nnn(Cc2c(F)cccc2F)c1C [Compound L, 1-[(2,6-difluorophenyl)methyl]-1H-1,2,3-triazole-carboxymethyl-5-methyl] the “Effect on hNav1.1 opening” value (hNav1.1) was “much smaller compared to compound B” and the “Shift of hNav1.6 steady-state inactivation / channel availability midpoint” value (hNav1.6; 100 μM, versus DMSO) was about −20 mV.

In the case of NC(=O)c1cn(Cc2c(F)cccc2F)nn1 [Rufinamide, 1-[(2,6-difluorophenyl)methyl]-1H-1,2,3-Triazole-4-carboxamide, reference compound], the “Effect on hNav1.1 steady-state inactivation, in words” value (hNav1.1) is reported as “not influenced”, the “Inactivation (V1/2) hNav1.1” value (hNav1.1) is reported as −47.8 ± 1.6 mV and the “Activation (V1/2) hNav1.1” value (hNav1.1) is reported as −30.6 ± 0.9 mV**. For the same molecule, the “Effect on hNav1.1 persistent current” value (hNav1.1) was “do not affect”, the “Effect on hNav1.1 opening” value (hNav1.1) was “dramatic depolarizing shift” and the “Inactivation (V1/2) hNav1.2” value (hNav1.2) was −57.7 ± 0.5 mV. The “Activation (V1/2) hNav1.2” value (hNav1.2) was −29.5 ± 1.2 mV, the “Effect on hNav1.2 opening/gating, in words” value (hNav1.2) was “not inhibited” and the “Inactivation (V1/2) hNav1.3” value (hNav1.3) was −52.6 ± 1.6 mV. The “Activation (V1/2) hNav1.3” value (hNav1.3) was −24.5 ± 2.4 mV, the “Effect on hNav1.3 opening/gating, in words” value (hNav1.3) was “not inhibited” and the “Inactivation (V1/2) hNav1.6” value (hNav1.6) was −60.0 ± 0.7 mV**. The “Activation (V1/2) hNav1.6” value (hNav1.6) was −28.1 ± 0.8 mV, the “Effect on hNav1.6 opening/gating, in words” value (hNav1.6; 100 μM, versus DMSO) was “not inhibited” and the “Activation of α1/β2/γ2 GABAA receptor” value (α1/β2/γ2 GABAA receptor; 100 μM) was “do not activate”. The “Effect on Nav1.7 inactivated state” value (Nav1.7) was “stabilizes the inactivated state”.

In the case of NCc1cc(=O)[nH]o1 [muscimol], the “Activation of α1/β2/γ2 GABAA receptor” value (α1/β2/γ2 GABAA receptor; 5 μM) is reported as “activates”.
